This note sets out measurements from patent US20170298083A1, “NEW IMMUNOSTIMULATORY COMPOUNDS” (Bernhard-Nocht-Institut für Tropenmedizin, priority 2014, published 2017).

Data set [1] can be described thus: liver toxicity: serum ALT after intraperitoneal injection. Format: in vivo. To be noted: C57BL/6 mice, four-time intraperitoneal injection; EhLPPG 1, 10, 25 and 50 μg/ml; αGalCer 0.1, 1 and 10 μg/ml.
The test system of the next data set is Leishmania major. In words: in vitro Leishmania assay: infected bone marrow derived macrophages. To be noted: for percentage of L. major infected macrophages / parasite load per macrophage: BMM, 48 h.
The test system of the next data set is human NKT cells. Description: human iNKT cell assay: intracellular cytokine production in whole PBMCs by FACS. To be noted: human PBMC, 15 h, 1 μg/ml αGalCer or 10 μg/ml purified EhLPPG, FIG. 1. Format: cell-based. In general terms: In flow cytometry, cells or beads pass a laser one at a time.

Regarding `CCCCCCCCCCCCCCCCCCCCCCCCCC(=O)N[C@@H](CO[C@H]1O[C@H](CO)[C@H](O)[C@H](O)[C@H]1O)[C@H](O)[C@H](O)CCCCCCCCCCCCCC` [αGalCer, α-galactosylceramide], in data set [1], the “liver ALT enzyme level in serum” value is reported as “significant increase in the ALT levels”. The “percentage of L. major infected macrophages” value is “significantly reduced” with Leishmania major (spleen-derived lymphocytes co-incubated, FIG. 5B) and “significantly reduced” in the data set with Leishmania major (without spleen cells, FIG. 5A). Moreover, the “parasite load per macrophage” value in the data set on Leishmania major (with addition of spleen cells, FIG. 5D) is “a significant reduction”; in the data set on Leishmania major (without spleen cells, FIG. 5C) it was “significantly reduced the amount of parasites within the macrophages”. Besides, the “expression of iNOS” value in the data set with Leishmania major (preliminary results, data not shown) was “increase in the expression of iNOS”. Further, the “production of tumor necrosis factor (TNF) α and IL-17 in NKT cells” value in the data set on human NKT cells is “led to the production of tumor necrosis factor (TNF) α and IL-17”. Besides, the “CD4+NKT cells positive for IFN-γ and IL-4” value with human NKT cells (αCD28 co-stimulant) is “considerable amounts of CD4+NKT cells positive for IFN-γ and IL-4”.
